Experiments:
[1] = Vaporization rate of the pesticidal ingredient (silica gel trap, acetone extraction, gas chromatography); format: physicochemical; conditions: 10 g composition heated with 100 g calcium oxide and water; air sucked at 30 L/min for 5 min
Method: Pesticidal devices were prepared in the same method as test examples 5 and 8, and had water poured to the calcium oxide. After the reaction of calcium oxide with water started, the pesticidal device was replaced to a glass funnel with a lid. The vaporizing pesticidal ingredient was then trapped to silica gel in glass column connected to the funnel by sucking air at 30 L/min for 5 m in. Subsequently, the pesticidal ingredient present in the silica gel was extracted with acetone. The vaporization rate for the pesticidal ingredient was then measured by the quantitative analysis of gas chromatography.
A pesticidal device was prepared by placing:
1) 10 g of the pesticidal composition obtained in example 2 was placed interior to the separating wall of the container presented in FIG. 1 and
2) 100 g of calcium oxide with 1-20 mesh was placed exterior to the said separating wall but within the said container. The acquired pesticidal device was then tested for the vaporization rate by utilizing the procedure recited in test example 10.

[2] = Japanese Laid-open patent No. sho-53-109945A, table 2, sample #23; cited from earlier work

Q: For `CC(C)=CC1C(C(=O)OCN2C(=O)C3=C(CCCC3)C2=O)C1(C)C` (stereo not drawn) [tetramethrin], which “vaporization rate for the pesticidal ingredient” value [1] is on record?
A: The value was 88.1%.

Q: And the vaporization rate [2]?
A: Its vaporization rate is 63.0%.

Q: Which “vaporization rate for the pesticidal ingredient” value [1] does the source give for `COC(=O)c1cc(Cl)ccc1NS(=O)(=O)C(F)(F)F` [2-methoxycarbonyl-4-chlorotrifluoromethanesulfonanilide] here?
A: Its value is 78.5%.

From patent US6451332B1, “Pesticidal composition having high pesticidal ingredient vaporization rate method for controlling pests, and method for producing a pesticidal composition” (Sumitomo Chemical Company, Limited, priority 1997, dated 2002)
